The source of these data is patent US5254801A, “Heterologous dominant conditional lethal gene which is a phosphonate monoester hydrolase and use thereof in plants” (Monsanto Company, priority 1990, dated 1993).

“Also recorded” adds a separate entry of the source.

For data set [1], the target named is T1, phosphonate monoester hydrolase (PEH) (Trinickia caryophylli, UniProt Q45087).
T1 sequence (Q45087 1-514): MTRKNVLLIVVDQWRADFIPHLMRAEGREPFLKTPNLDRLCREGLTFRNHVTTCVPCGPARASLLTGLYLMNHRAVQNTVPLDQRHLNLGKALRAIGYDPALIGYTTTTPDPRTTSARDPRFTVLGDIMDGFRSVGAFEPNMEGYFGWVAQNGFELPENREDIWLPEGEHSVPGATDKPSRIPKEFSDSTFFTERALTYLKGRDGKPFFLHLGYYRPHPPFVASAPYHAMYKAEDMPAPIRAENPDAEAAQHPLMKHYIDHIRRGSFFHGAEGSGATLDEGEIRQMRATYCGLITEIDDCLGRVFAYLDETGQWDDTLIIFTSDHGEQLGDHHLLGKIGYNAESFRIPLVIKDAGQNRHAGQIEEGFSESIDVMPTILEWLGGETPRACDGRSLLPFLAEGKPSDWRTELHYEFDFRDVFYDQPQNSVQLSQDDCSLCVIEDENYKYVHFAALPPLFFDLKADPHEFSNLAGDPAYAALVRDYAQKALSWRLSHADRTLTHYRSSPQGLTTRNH
Nature of the data set: Hydrolysis of protoxin to glyphosate by phosphonate monoester hydrolase. The class given is biochemical, Pseudomonas caryophilli PG2982. As for the experimental part: The critical tests for a prophytotoxin to be used in negative selection, cell ablation and as a gametocide are that the compound is non-phytotoxic per se but can be hydrolyzed into a phytotoxin by the phosphonate monoester hydrolase protein. The most general and specific method to determine if a protoxin is hydrolyzed to a toxic form of glyphosate is a HPLC assay. The compounds are dissolved at 100 mM concentration in a suitable buffer such as 10 mM TAPS, (N-Tris(hydroxymethyl)methyl-2-aminopropane sulfonic acid) pH 9.0. Triplicate samples (0.1 ml) of the compound are then diluted with 0.9 ml of 10 mM TAPS, pH 9.0 and with 0.9 ml 10 mM TAPS, pH 9.0 plus one unit (1 μmol/min) of enzyme. After 24 hour incubation at 25° C., the samples are injected onto a HPLC column for glyphosate analysis. […] The protoxin and glyphosate are separated on an anion exchange column. the glyphosate is oxidized as it elutes in the presence of bleach and is then derivatized by o-pthaldehyde to a fluorescent derivative which can be quantitatively measured by a fluorescence monitor. […] After two days, the plant is dissected into individual tissues and the amount of protoxin in each tissue determined. […] The tissue samples were then combusted and the amount of radiolabelled compound in each tissue determined by scintillation counting. […]

Data set [2] deals with Arabidopsis callus. The data set is classed as cell-based.

In the case of `O=C(O)CNCP(=O)(O)OCC(O)CO` (centres unmarked) [glyceryl glyphosate, glycine, N-([hydroxy (2,3 dihydroxy propoxy)phosphonyl]methyl)], in data set [1], the “Substrate for / hydrolysis by phosphonate monoester hydrolase” value was “is a substrate for the phosphonate monoester hydrolases; also recorded: hydrolyze the glyceryl glyphosate into glycerol and glyphosate”. Besides, in data set [2], the Cytotoxicity entry is “relatively non-cytotoxic”.
